{"source": "a melting point compilation (Tetko et al.; mined from patent text by program, amines drawn as free bases though some values may be those of a salt)", "data": [{"units": {"melting point": "°C"}, "values": [{"smiles": "O=C(Nc1nc(OCc2ccc(F)cc2)ncc1F)c1snc(Cl)c1Cl", "melting point": "87 to 90"}, {"smiles": "C=Cc1cc(O)cc2nc(-c3ccc(O)c(F)c3F)oc12", "melting point": "276 to 278"}, {"smiles": "CCCCCCCCCC[C@H](O)c1ccc2ccccc2c1", "melting point": "53 to 54"}, {"smiles": "CCCCCCCCCCCC(=O)Nc1ccc(NC(=O)CCNC(=O)C2OC(C)(C)OCC2(C)C)cc1", "note": "(configuration not stated)", "melting point": "144 to 145"}, {"smiles": "Clc1cc(Oc2ccc3ncccc3c2)ncn1", "melting point": "136 to 137"}, {"smiles": "COc1ccc2c(c1)c1c(n2Cc2ccccc2)CCCC1=O", "melting point": "174 to 175"}, {"smiles": "Brc1cc2c(nc1-c1ccccc1)OCC2", "melting point": "83.5 to 85.5"}, {"smiles": "Cc1[nH]c(=O)[nH]c1C(=O)c1ccc(F)cc1", "melting point": "289 to 292"}, {"smiles": "CC(=O)SC1CC(=O)N1C(Cl)C(=O)OCc1ccc([N+](=O)[O-])cc1", "note": "(configuration not stated)", "melting point": "72 to 73"}, {"smiles": "O=Cc1cc(Br)ccc1C(=O)O", "melting point": 202}, {"smiles": "Cc1nc(N)nc(N)c1N=Nc1cccc(Cl)c1", "melting point": 249}, {"smiles": "CC1CC2=CC(=O)CCC2C2CCC3(C)C(O)CCC3C12", "note": "(configuration not stated)", "melting point": "144 to 146"}, {"smiles": "Cc1c(NC(=O)c2ccc(OC[C@@H]3CCCO3)cc2)ccc2c1cc(CNCC(C)(C)C)n2C", "melting point": 179}, {"smiles": "NC(=O)c1cn(Cc2c(F)cccc2F)nn1", "melting point": "237 to 240"}, {"smiles": "O=C(O)c1ccccc1N1CCN(CC(O)COc2ccc(O)cc2)CC1", "note": "(configuration not stated)", "melting point": "235 to 237"}, {"smiles": "CCOC(=NC(=O)c1ccc(F)cc1)N1Cc2ccccc2-c2ccccc2C1", "melting point": "109 to 110"}, {"smiles": "COc1cc(COc2nn(Cc3ccccc3)cc2C(C)=O)ccc1OCc1nc(-c2ccco2)oc1C", "melting point": "144 to 145"}, {"smiles": "CCCCc1nn(-c2ccc([N+](=O)[O-])cc2C(F)(F)F)c(=O)[nH]1", "melting point": "126 to 128"}, {"smiles": "NS(=O)(=O)c1ccc(-n2nc(C(F)(F)F)cc2-c2ccc(-c3ccco3)cc2)cc1Cl", "melting point": 193}, {"smiles": "CN(C)c1cccc(CN2C(=O)C3(COc4cc5c(cc43)OCCO5)c3ccccc32)n1", "note": "(configuration not stated)", "melting point": "196 to 197"}, {"smiles": "Cc1cc(C2(O)C(=O)c3ccccc3C2=O)c(C)cc1O", "melting point": "228 to 230"}, {"smiles": "O=C(Cn1cnnn1)OCc1ccccc1", "melting point": "69 to 72"}, {"smiles": "OCc1cc2c(F)ccc(Br)c2s1", "melting point": "80 to 81"}, {"smiles": "CNc1nc(-c2cccc(-c3ccc(C)c(C)c3)c2)c2cc(OC)c(OC)cc2n1", "melting point": "149 to 151"}, {"smiles": "NCc1cccc(OCCSc2nc[nH]n2)c1", "melting point": "> 300"}, {"smiles": "Cc1c[nH]c(Cc2ccc(O)cc2)n1", "melting point": "193 to 194"}, {"smiles": "Nc1nc(CSCCN2CCN(C(c3ccccc3)c3ccccc3)CC2)cs1", "melting point": "159 to 161"}, {"smiles": "COc1ccc(C(=O)c2noc(CC(=O)O)n2)cc1", "melting point": "126 to 127"}, {"smiles": "COc1ccc(/C=C/c2cc(OC)c(OC)c(OC)c2)cc1", "melting point": "152 to 155"}, {"smiles": "Cc1ccc2ccc(C(=O)O)c(O)c2n1", "melting point": "217 to 219"}, {"smiles": "CC1CCc2ccc3ccccc3c2C1=O", "note": "(configuration not stated)", "melting point": "61 to 63"}, {"smiles": "CC(C)Oc1c(C(=O)O)sc(-c2ccccc2)c1Br", "melting point": "159 to 160"}, {"smiles": "CN1CCCC1CCNc1nccc(Oc2ccc(NC(=O)c3cc(F)cc(N4CCCCC4)c3)c3ccccc23)n1", "note": "(configuration not stated)", "melting point": "112 to 114"}, {"smiles": "CC(=O)OC1CC2(C)C(=O)CCC2C2C(C)CC3=CC(=O)CCC3C12", "note": "(configuration not stated)", "melting point": 183}, {"smiles": "O=C(c1ccco1)c1cnn2c1NCCC2", "melting point": "138 to 139"}, {"smiles": "O=C1CCC(n2cnc(-c3ccc(F)cc3)c2-c2ccnc(OCCO)n2)CC1", "melting point": "203 to 205"}, {"smiles": "CCP(CC)c1ccc(Cl)cc1", "melting point": "77 to 79"}, {"smiles": "COc1ccc(CBr)cc1[N+](=O)[O-]", "melting point": "110 to 112"}, {"smiles": "N#Cc1ccc(Nc2nc(Oc3c(Br)cc(CO)cc3Br)ccc2[N+](=O)[O-])cc1", "melting point": "209 to 213"}, {"smiles": "Cc1c(Cc2cccc(C(F)(F)F)c2)sc2c(-c3cccc(C(=O)NCC(N)=O)c3)cccc12", "melting point": "187 to 188"}, {"smiles": "Cc1c(-c2ccncc2)sc(-c2ccncc2)c1CF", "melting point": 148}, {"smiles": "O=C(Cn1nnnc1-c1ccoc1)OCCO", "melting point": "91 to 93"}, {"smiles": "COC(=O)CCCc1cc2nc(Cl)ccc2n1S(=O)(=O)c1cccc2nsnc12", "melting point": 112}, {"smiles": "CC[C@@H]1N(c2ccc(C#N)c(Cl)c2)C(=O)C[C@@]1(O)C1CC1", "melting point": "128 to 132"}, {"smiles": "CN(C)c1ccc(C(=O)OC2CCN(Cc3ccccc3)CC2)cc1", "melting point": 103}, {"smiles": "C=CCC(CC=C)(C(=O)NO)S(=O)(=O)c1ccc(OC)cc1", "melting point": "114 to 116"}, {"smiles": "CCNc1nc(C(C)(C)C)nn1-c1c(Cl)cc(C(F)(F)F)cc1Cl", "melting point": "67 to 70"}, {"smiles": "CCC1=C(C)C(=C(C#N)C#N)C(C)=C(CC)O1", "melting point": "64 to 65"}, {"smiles": "O=C(O)c1ccc2ccccn2c1=O", "melting point": "235 to 240"}, {"smiles": "COc1ccccc1N1CCN(c2cc3nc(C(=O)O)c(=O)[nH]c3cc2[N+](=O)[O-])CC1", "melting point": "204 to 206"}, {"smiles": "CN=C(ON1C(=O)c2ccccc2C1=O)c1ccccc1", "melting point": "174 to 176"}, {"smiles": "CCOCC1COc2cc(C(=O)O)c(N)cc2O1", "note": "(configuration not stated)", "melting point": "124 to 130"}, {"smiles": "O=Cc1ccc(OCc2ccccc2)cc1OCc1ccccc1", "melting point": "80 to 81"}, {"smiles": "COc1c(CBr)cccc1CBr", "melting point": "83.5 to 85.5"}, {"smiles": "COc1ccc(S(=O)(=O)Nc2cccc(F)c2/C=C/c2ccncc2)cc1", "melting point": "177 to 178"}, {"smiles": "COC(=O)c1ccc2c(c1)S(=O)c1cc3c(cc1CC2)CCC3", "note": "(configuration not stated)", "melting point": "150 to 154"}, {"smiles": "CC(=O)NC1Cc2cccc3cccc(c23)C1O", "note": "(configuration not stated)", "melting point": "205 to 206"}, {"smiles": "O=C1CNC(=O)N1Cc1ccc2c(c1)N(C1CCN(CCc3ccc(F)cc3)CC1)CC2", "melting point": "191 to 193"}, {"smiles": "Cc1nc(-c2ccc(OCCCn3ccnc3)cc2)no1", "melting point": "110 to 112"}, {"smiles": "CCCNC(=O)C1=C(C(=O)Nc2cc(OC3CCCC3)c(Cl)cc2F)CCCC1", "melting point": "138 to 140"}, {"smiles": "O=c1cc(C(F)(F)F)c2c(O)cc(O)cc2o1", "melting point": "212 to 214"}, {"smiles": "NC(=O)NS(=O)(=O)c1ccccc1Cl", "melting point": "160 to 163"}, {"smiles": "OC1c2ccc(Cl)cc2OCc2cccnc21", "note": "(configuration not stated)", "melting point": "105 to 108"}, {"smiles": "COc1cc(OC)c2c(=O)[nH]c(-c3cc(C)c(OCCN4CCN(C)CC4)c(C)c3)cc2c1", "melting point": "195 to 198"}, {"smiles": "O=[N+]([O-])c1cc(C2=Nc3ccccc3SC2)cc(O)c1O", "melting point": "302 to 304"}, {"smiles": "O=S(=O)(Nc1ccc(N2CCN3CCC2CC3)cc1)c1ccccc1", "melting point": 267}, {"smiles": "Cc1cccc(-c2c[nH]c(=O)c(C#N)c2)c1", "melting point": "254 to 260"}, {"smiles": "CN(C1=NC(=O)CS1)c1ccc(C(O)(C(F)(F)F)C(F)(F)F)cc1", "melting point": "240 to 242"}, {"smiles": "Cc1cc(C2=C(C=CC3CC(O)CC(=O)O3)C(C)(C)CC(OC(=O)Nc3ccccc3)C2)ccc1F", "note": "(configuration not stated)", "melting point": "73 to 75"}, {"smiles": "CC(=O)Cc1ccc(O)cn1", "melting point": "119 to 120"}, {"smiles": "CC(C)(C)OC(=O)NCc1cccc(C2CCNCC2)c1", "melting point": "79 to 84"}, {"smiles": "CCOP(=O)(CC(=O)Nc1c(C(C)C)cccc1C(C)C)OCC", "melting point": "119 to 120"}, {"smiles": "CC(O)C1CCC(CNC(=O)OCc2ccccc2)CC1", "note": "(configuration not stated)", "melting point": "83 to 84"}, {"smiles": "O=C(Cl)C(=O)c1cn(Cc2ccc(Cl)cc2)c2ccccc12", "melting point": "151 to 153"}, {"smiles": "CCCCCCCc1ccc(NC2=NCCS2)cc1", "melting point": "81 to 82"}, {"smiles": "CC1(O)CC(=O)OC(CCc2ccc(Cl)cc2)C1", "note": "(configuration not stated)", "melting point": "61 to 64"}, {"smiles": "COc1cc(COc2nn(-c3ccccc3)cc2C(N)=O)ccc1OCc1nc(-c2ccco2)oc1C", "melting point": "175 to 176"}]}]}
